Experimental data published in paper PMC4861708 (Frontiers in Cell and Developmental Biology, 2016).
Values after ≈ are worked out from the molar mass of the structure shown. Where a SMILES comes first, the peptide text is derived from it. [ ]: non-standard residue; d: D form. The star is where a group is joined. Orn(α-tetramethylguanidino) = CN(C)C(=N[C@@H](CCCN)C(=O)*)N(C)C; Orn = NCCC[C@H](N)C(=O)O

What was measured:
[1] = system: P. aeruginosa DSM 1117 (ATCC 27853); format: cell-based, Pseudomonas aeruginosa; conditions: DSM 1117, 24 h
Experimental: MICs of P. aeruginosa strains DSM 1117 (ATCC 27853), DSM 3227 (ATCC 19429), and DSM 9644 were determined in a microdilution broth assay using 50 or 100% MHB (11.5 and 23 g/L MHB, respectively) whereas MICs of E. coli DSM 1103 (ATCC 25922) and K. pneumoniae DSM 681 (ATCC 10031) were determined in TSB (30 g/L TSB). Peptides (1 g/L in water) were serially two-fold diluted in a 96-well microtiter plate (PS, sterile, flat bottom) in 50 μL of the corresponding medium to final concentrations of 512–4 μg/mL. Bacteria were grown in nutrient broth overnight and diluted to a cell concentration of 1.5 × 10^7 cells/mL in the corresponding medium. Cell densities were determined by using the McFarland standard as reference. An aliquot (50 μL) of the cell culture was added to each well and incubated (37°C, 24 h). The OD595 was determined in a SpectraMax 340PC (Molecular Devices, Sunnyvale, USA). Additionally, MIC values were also determined for high bacteria densities (5 × 10^8 cells/mL) corresponding to the conditions used for TEM, as described above.

[2] = system: E. coli DSM 1103 (ATCC 25922); format: cell-based, Escherichia coli; conditions: DSM 1103, 24 h
[3] = system: K. pneumoniae DSM 681 (ATCC 10031); format: cell-based, Klebsiella pneumoniae; conditions: DSM 681, 24 h
Procedure, shortened: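 Broth microdilution MIC: P. aeruginosa strains in 50 or 100% MHB, K. pneumoniae in TSB; peptides 512–4 μg/mL final. Inoculum from 1.5 × 10^7 cells/mL suspension, also high density 5 × 10^8 cells/mL; 37°C, 24 h, growth read at OD595.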

[4] = system: P. aeruginosa DSM 1117; assay: Transmission electron microscopy, morphological changes; format: cell-based, Pseudomonas aeruginosa; conditions: 1 h
Experimental: (§1) Peptide-bacteria mixtures were fixed (2% glutaraldehyde, 5 mmol/L CaCl2, 10 mmol/L MgCl2 in 0.1 mol/L sodium cacodylate buffer, pH 7.4) overnight at 4°C. […] Samples were rinsed with distilled water (5 × 10 min), incubated with aqueous uranylacetate (0.5% w/v) for 1 h at 4°C, washed with distilled water (3 × 10 min), and embedded in Epon. The hardened blocks were sectioned (50 nm) on a UCT ultramicrotome (Leica, Vienna, Austria), stained with uranyl acetate and lead citrate on an AC20 system (Leica), and visualized at a Tecnai 12 electron microscope (FEI, Eindhoven, The Netherlands) at 80 kV. Morphological effects were quantified on average for 25 cells per condition.

[5] = system: E. coli DSM 1103; assay: as above; format: cell-based, Escherichia coli; conditions: 1 h
Experimental: as §1

CC(C)C[C@H](NC(=O)[C@H](CCCNC(=N)N)NC(=O)[C@@H]1CCCN1C(=O)[C@H](Cc1c[nH]cn1)NC(=O)[C@@H]1CCCN1C(=O)[C@@H]1CCCN1C(=O)[C@H](CCCNC(=N)N)NC(=O)[C@@H]1CCCN1C(=O)[C@H](CCCNC(=N)N)NC(=O)[C@@H]1CCCN1C(=O)[C@H](CCCN)NC(=O)[C@H](Cc1ccc(O)cc1)NC(=O)[C@@H](NC(=O)[C@@H]1CCCN1C(=O)[C@H](CCCNC(=N)N)NC(=O)[C@H](CCCN)NC(=O)[C@H](Cc1c[nH]c2ccccc12)NC(=O)[C@H](CCCN)NC(=O)[C@H](Cc1c[nH]c2ccccc12)NC(=O)[C@H](CCCN)NC(=O)[C@H](Cc1c[nH]c2ccccc12)NC(=O)[C@H](CCCN)N=C(N(C)C)N(C)C)C(C)C)C(=O)O [Api794, gu-O(WO)3RPVYOPRPRPPHPRL-OH] ({Orn(α-tetramethylguanidino)}-W[Orn]W[Orn]W[Orn]RPVY[Orn]PRPRPPHPRL-OH)
MIC P. aeruginosa DSM 1117, high inoculum [1]: 64 µg/mL (≈ 21.6 µM)
MIC E. coli ATCC 25922 [2]: 16 µg/mL (≈ 5.4 µM)
MIC E. coli DSM 1103, high inoculum [2]: 64 µg/mL (≈ 21.6 µM)
MIC K. pneumoniae DSM 681 [3]: 32 µg/mL (≈ 10.8 µM)
Cells spongy ([4]; 16 µg/mL): 0%
DNA/ribosomes relocalization: +++, extremely relocalized ([4]; 16 µg/mL): 0%
DNA/ribosomes relocalization: ++, relocalized ([4]; 16 µg/mL): 23%
DNA/ribosomes relocalization: +, starting ([4]; 16 µg/mL): 37%
DNA/ribosomes relocalization: -, no ([4]; 16 µg/mL): 40%
Membrane: b, broken ([4]; 16 µg/mL): 0%
Membrane: i, intact ([4]; 16 µg/mL): 100%
Membrane: r, ruptured ([4]; 16 µg/mL): 0%
Ribosome clustering: +++, extremely clustered ([4]; 16 µg/mL): 0%
Ribosome clustering: ++, clustered ([4]; 16 µg/mL): 0%
Ribosome clustering: +, starting ([4]; 16 µg/mL): 80%
Ribosome clustering: -, no ([4]; 16 µg/mL): 20%
Vesicle release ([4]; 16 µg/mL): 87%
dissociated Fragments: +, small and thin ([4]; 16 µg/mL): 10%
dissociated Fragments: -, no ([4]; 16 µg/mL): 77%
dissociated Fragments: LV, large vesicles ([4]; 16 µg/mL): 0%
Cells spongy ([4]; 64 µg/mL): 0%
DNA/ribosomes relocalization: +++, extremely relocalized ([4]; 64 µg/mL): 83%
DNA/ribosomes relocalization: ++, relocalized ([4]; 64 µg/mL): 10%
DNA/ribosomes relocalization: +, starting ([4]; 64 µg/mL): 3%
DNA/ribosomes relocalization: -, no ([4]; 64 µg/mL): 3%
Membrane: b, broken ([4]; 64 µg/mL): 80%
Membrane: i, intact ([4]; 64 µg/mL): 20%
Membrane: r, ruptured ([4]; 64 µg/mL): 47%
Ribosome clustering: +++, extremely clustered ([4]; 64 µg/mL): 73%
Ribosome clustering: ++, clustered ([4]; 64 µg/mL): 10%
Ribosome clustering: -, no ([4]; 64 µg/mL): 3%
Vesicle release ([4]; 64 µg/mL): 20%
dissociated Fragments: ++, long and thin ([4]; 64 µg/mL): 63%
dissociated Fragments: +, small and thin ([4]; 64 µg/mL): 20%
dissociated Fragments: LV, large vesicles ([4]; 64 µg/mL): 30%
Cells spongy ([4]; 256 µg/mL): 80%
DNA/ribosomes relocalization: +++, extremely relocalized ([4]; 256 µg/mL): 100%
DNA/ribosomes relocalization: ++, relocalized ([4]; 256 µg/mL): 0%
DNA/ribosomes relocalization: +, starting ([4]; 256 µg/mL): 0%
DNA/ribosomes relocalization: -, no ([4]; 256 µg/mL): 0%
Membrane: b, broken ([4]; 256 µg/mL): 67%
Membrane: i, intact ([4]; 256 µg/mL): 34%
Membrane: r, ruptured ([4]; 256 µg/mL): 67%
Ribosome clustering: +++, extremely clustered ([4]; 256 µg/mL): 100%
Ribosome clustering: ++, clustered ([4]; 256 µg/mL): 0%
Ribosome clustering: +, starting ([4]; 256 µg/mL): 0%
Ribosome clustering: -, no ([4]; 256 µg/mL): 0%
Vesicle release ([4]; 256 µg/mL): 3%
dissociated Fragments: ++, long and thin ([4]; 256 µg/mL): 80%
dissociated Fragments: -, no ([4]; 256 µg/mL): 7%
dissociated Fragments: LV, large vesicles ([4]; 256 µg/mL): 93%
Cells spongy ([4]; 512 µg/mL): 87%
DNA/ribosomes relocalization: +++, extremely relocalized ([4]; 512 µg/mL): 100%
DNA/ribosomes relocalization: ++, relocalized ([4]; 512 µg/mL): 0%
DNA/ribosomes relocalization: +, starting ([4]; 512 µg/mL): 0%
DNA/ribosomes relocalization: -, no ([4]; 512 µg/mL): 0%
Ribosome clustering: +++, extremely clustered ([4]; 512 µg/mL): 93%
Ribosome clustering: ++, clustered ([4]; 512 µg/mL): 7%
Ribosome clustering: +, starting ([4]; 512 µg/mL): 0%
Ribosome clustering: -, no ([4]; 512 µg/mL): 0%
Vesicle release ([4]; 512 µg/mL): 0%
dissociated Fragments: ++, long and thin ([4]; 512 µg/mL): 60%
dissociated Fragments: +, small and thin ([4]; 512 µg/mL): 0%
dissociated Fragments: -, no ([4]; 512 µg/mL): 40%
dissociated Fragments: LV, large vesicles ([4]; 512 µg/mL): 97%
Cell: r, ruptured ([5]; 16 µg/mL): 0%
DNA/Ribosomes relocalized ([5]; 16 µg/mL): 0%
Fragments: +++, long and thick ([5]; 16 µg/mL): 0%
Fragments: ++, long and thin ([5]; 16 µg/mL): 23%
Fragments: +, small and thin ([5]; 16 µg/mL): 40%
Fragments: -, no ([5]; 16 µg/mL): 37%
Fragments: LV, large vesicles ([5]; 16 µg/mL): 0%
Membrane: i, intact ([5]; 16 µg/mL): 33%
Membrane: w, wrinkled ([5]; 16 µg/mL): 67%
Vesicle release strong ([5]; 16 µg/mL): 100%
Cell: r, ruptured ([5]; 64 µg/mL): 0%
DNA/Ribosomes relocalized ([5]; 64 µg/mL): 0%
Fragments: +++, long and thick ([5]; 64 µg/mL): 23%
Fragments: ++, long and thin ([5]; 64 µg/mL): 33%
Fragments: +, small and thin ([5]; 64 µg/mL): 27%
Fragments: -, no ([5]; 64 µg/mL): 17%
Fragments: LV, large vesicles ([5]; 64 µg/mL): 3%
Membrane: i, intact ([5]; 64 µg/mL): 100%
Membrane: w, wrinkled ([5]; 64 µg/mL): 0%
Vesicle release strong ([5]; 64 µg/mL): 97%
Cell: r, ruptured ([5]; 256 µg/mL): 0%
DNA/Ribosomes relocalized ([5]; 256 µg/mL): 0%
Fragments: +++, long and thick ([5]; 256 µg/mL): 3%
Fragments: ++, long and thin ([5]; 256 µg/mL): 37%
Fragments: +, small and thin ([5]; 256 µg/mL): 43%
Fragments: -, no ([5]; 256 µg/mL): 17%
Fragments: LV, large vesicles ([5]; 256 µg/mL): 93%
Membrane: i, intact ([5]; 256 µg/mL): 3%
Membrane: w, wrinkled ([5]; 256 µg/mL): 97%
Vesicle release strong ([5]; 256 µg/mL): 97%
Cell: r, ruptured ([5]; 512 µg/mL): 3%
DNA/Ribosomes relocalized ([5]; 512 µg/mL): 30%
Fragments: +++, long and thick ([5]; 512 µg/mL): 17%
Fragments: ++, long and thin ([5]; 512 µg/mL): 30%
Fragments: +, small and thin ([5]; 512 µg/mL): 37%
Fragments: -, no ([5]; 512 µg/mL): 17%
Fragments: LV, large vesicles ([5]; 512 µg/mL): 97%
Membrane: i, intact ([5]; 512 µg/mL): 93%
Membrane: w, wrinkled ([5]; 512 µg/mL): 7%
Vesicle release strong ([5]; 512 µg/mL): 93%
